Assay results reported in patent US20230143612A1 (Arbutus Biopharma Corporation, priority 2020, published 2023).

The molecules below were run against PD-L1 His protein / PD-1 Fc protein (Homo sapiens, UniProt Q9NZQ7) (assay: HTRF Assay (PD-1/PD-L1 interaction)). Details: PD-L1 His 6 nM, PD-1 Fc 6 nM.
Format: binding
Method in brief: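 HTRF: PD-L1 His (6 nM final), compound (3-fold dilutions, 20 μM to 0.001 μM final) and PD-1 Fc (6 nM final) preincubated 15 min at room temperature. Anti-human IgG-XL665 and anti-6HIS Tb cryptate (mixed at 6.7 nM and 0.35 nM) then added for 1 h at room temperature before reading.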

Chain of PD-L1 His protein / PD-1 Fc protein (Q9NZQ7 19-238 limits assumed): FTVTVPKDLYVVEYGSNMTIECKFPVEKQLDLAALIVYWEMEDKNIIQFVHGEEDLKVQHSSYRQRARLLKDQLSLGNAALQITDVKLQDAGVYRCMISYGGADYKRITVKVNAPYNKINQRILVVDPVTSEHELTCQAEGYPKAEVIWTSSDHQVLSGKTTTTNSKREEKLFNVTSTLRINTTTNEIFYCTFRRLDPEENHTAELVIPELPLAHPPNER

Compound | IC50
COc1nc(-c2cccc(-c3cccc(-c4ccn5c(=O)c(CN6C[C@@H](O)C[C@@H]6C(=O)O)cnc5c4)c3Cl)c2Cl)ccc1CNC[C@@H]1CCC(=O)N1 [Example 149, (2R,4S)-1-((8-(2,2′-Dichloro-3′-(6-methoxy-5-(((((S)-5-oxopyrrolidin-2-yl)methyl)amino)methyl)pyridin-2-yl)-[1,1′-biphenyl]-3-yl)-4-oxo-4H-pyrido[1,2-a]pyrimidin-3-yl)methyl)-4-hydroxypyrrolidine-2-carboxylic acid] | 0.3 nM
COc1nc(-c2cccc(-c3cccc(-c4ccn5c(=O)c(CNC[C@@H](C)O)cnc5c4)c3Cl)c2Cl)ccc1CNC[C@@H](C)O [Example 186, 8-(2,2′-Dichloro-3′-(5-((((R)-2-hydroxypropyl)amino)methyl)-6-methoxypyridin-2-yl)-[1,1′-biphenyl]-3-yl)-3-((((R)-2-hydroxypropyl)amino)methyl)-4H-pyrido[1,2-a]pyrimidin-4-one] | 6.4 nM
Cc1nc(-c2cccc(-c3cccc(-c4ccn5c(=O)c(CNC[C@@H]6CCC(=O)N6)cnc5c4)c3C)c2Cl)ccc1CNC[C@@H]1CCC(=O)N1 [Example 79, 8-(2′-Chloro-2-methyl-3′-(6-methyl-5-(((((S)-5-oxopyrrolidin-2-yl)methyl)amino)methyl)pyridin-2-yl)-[1,1′-biphenyl]-3-yl)-3-(((((S)-5-oxopyrrolidin-2-yl)methyl)amino)methyl)-4H-pyrido[1,2-a]pyrimidin-4-one] | 2.8 nM
CNC(=O)CCNCc1cnc2cc(-c3cccc(-c4cccc(-c5ccc(CNC[C@@H]6CCC(=O)N6)c(OC)n5)c4Cl)c3Cl)ccn2c1=O [Example 210, (S)-3-(((8-(2,2′-dichloro-3′-(6-methoxy-5-((((5-oxopyrrolidin-2-yl)methyl)amino)methyl)pyridin-2-yl)-[1,1′-biphenyl]-3-yl)-4-oxo-4H-pyrido[1,2-a]pyrimidin-3-yl)methyl)amino)-N-methylpropanamide] | 0.1 nM
COc1nc(-c2cccc(-c3cccc(-c4cc5c(=O)n(C)c(CNC(C)(C)C)nn5c4)c3Cl)c2Cl)ccc1CNC[C@@H]1CCC(=O)N1 [Example 479, 2-[(tert-Butylamino)methyl]-6-[2-chloro-3-[2-chloro-3-[6-methoxy-5-[[[(2S)-5-oxopyrrolidin-2-yl]methylamino]methyl]-2-pyridyl]phenyl]phenyl]-3-methyl-pyrrolo[2,1-f][1,2,4]triazin-4-one] | 14 nM
COC(=O)C12CCC(CC1)N(Cc1ccc(-c3cccc(-c4cccc(-c5ccn6c(=O)c(CNC[C@@H]7CCC(=O)N7)cnc6c5)c4Cl)c3Cl)nc1OC)C2 [Example 121, Methyl (S)-2-((6-(2,2′-dichloro-3′-(4-oxo-3-((((5-oxopyrrolidin-2-yl)methyl)amino)methyl)-4H-pyrido[1,2-a]pyrimidin-8-yl)-[1,1′-biphenyl]-3-yl)-2-methoxypyridin-3-yl)methyl)-2-azabicyclo[2.2.2]octane-4-carboxylate] | 1 nM
COc1nc(-c2cccc(-c3cccc(-c4ccn5c(=O)c(CNC[C@@H]6CCC(=O)N6)cnc5c4)c3Cl)c2Cl)ccc1CN[C@H]1C[C@](C)(O)C1 [Example 142, 8-(2,2′-Dichloro-3′-(5-((((1r,3r)-3-hydroxy-3-methylcyclobutyl)amino)methyl)-6-methoxypyridin-2-yl)-[1,1′-biphenyl]-3-yl)-3-(((((S)-5-oxopyrrolidin-2-yl)methyl)amino)methyl)-4H-pyrido[1,2-a]pyrimidin-4-one] | 1.7 nM
COc1nc(-c2cccc(-c3cccc(-c4ccn5c(=O)c(CNC6CCN(C(C)=O)CC6)cnc5c4)c3Cl)c2Cl)ccc1CNC1CCN(C(C)=O)CC1 [Example 322, 3-[[(1-Acetyl-4-piperidyl)amino]methyl]-8-[3-[3-[5-[[(1-acetyl-4-piperidyl)amino]methyl]-6-methoxy-2-pyridyl]-2-chloro-phenyl]-2-chloro-phenyl]pyrido[1,2-a]pyrimidin-4-one] | 0.1 nM
COc1nc(-c2cccc(-c3cccc(-c4cc5c(=O)n(C)c(CNC[C@H]6CNC(=O)C6)nn5c4)c3Cl)c2Cl)ccc1CNC[C@@H]1CCC(=O)N1 [Example 476, 6-[2-Chloro-3-[2-chloro-3-[6-methoxy-5-[[[(2S)-5-oxopyrrolidin-2-yl]methylamino]methyl]-2-pyridyl]phenyl]phenyl]-3-methyl-2-[[[(3S)-5-oxopyrrolidin-3-yl]methylamino]methyl]pyrrolo[2,1-f][1,2,4]triazin-4-one] | 33 nM
COc1nc(NCCNC(C)=O)cnc1-c1cccc(-c2cccc(-c3ncc(NCCNC(C)=O)nc3OC)c2Cl)c1Cl [Example 39, N,N′-((((2,2′-Dichloro-[1,1′-biphenyl]-3,3′-diyl)bis(6-methoxypyrazine-5,2-diyl))bis(azanediyl))bis(ethane-2,1-diyl))diacetamide] | 1000 nM
Cc1c(-c2ccn3c(=O)c(CNC[C@@H]4CCC(=O)N4)cnc3c2)cccc1-c1cccc(-c2ccc3c(c2)CC(NC(=O)CN)C3)c1Cl (mixture of isomers) [Example 43, 2-Amino-N-(5-(2-chloro-2′-methyl-3′-(4-oxo-3-(((((S)-5-oxopyrrolidin-2-yl)methyl)amino)methyl)-4H-pyrido[1,2-a]pyrimidin-8-yl)-[1,1′-biphenyl]-3-yl)-2,3-dihydro-1H-inden-2-yl)acetamide] | 270 nM
COc1nc(-c2cc(F)cc(-c3cccc(-c4ccn5c(=O)c(CNC[C@@H]6CCC(=O)N6)cnc5c4)c3Cl)c2Cl)ccc1CNC[C@@H]1CCC(=O)N1 [Example 86, 8-(2,2′-Dichloro-5′-fluoro-3′-(6-methoxy-5-(((((S)-5-oxopyrrolidin-2-yl)methyl)amino)methyl)pyridin-2-yl)-[1,1′-biphenyl]-3-yl)-3-(((((S)-5-oxopyrrolidin-2-yl)methyl)amino)methyl)-4H-pyrido[1,2-a]pyrimidin-4-one] | 4.1 nM
COc1nc(-c2cccc(-c3cccc(-c4ccn5c(=O)c(CNC[C@H](C)O)c(OC)nc5c4)c3Cl)c2Cl)ccc1CNC[C@@H]1CCC(=O)N1 [Example 262] | 6.1 nM
COc1nc(-c2cccc(-c3cccc(-c4ccn5c(=O)c(CN6CC[C@H](C(=O)O)C6)cnc5c4)c3Cl)c2Cl)ccc1CNCCO [Example 172, (S)-1-((8-(2,2′-Dichloro-3′-(5-(((2-hydroxyethyl)amino)methyl)-6-methoxypyridin-2-yl)-[1,1′-biphenyl]-3-yl)-4-oxo-4H-pyrido[1,2-a]pyrimidin-3-yl)methyl)pyrrolidine-3-carboxylic acid] | 0.3 nM
COc1nc(-c2cccc(-c3cccc(-c4ccn5c(=O)c(CN(C)CC(=O)O)cnc5c4)c3Cl)c2Cl)ccc1CNC[C@@H]1CCC(=O)N1 [Example 187, (S)—N-((8-(2,2′-Dichloro-3′-(6-methoxy-5-((((5-oxopyrrolidin-2-yl)methyl)amino)methyl)pyridin-2-yl)-[1,1′-biphenyl]-3-yl)-4-oxo-4H-pyrido[1,2-a]pyrimidin-3-yl)methyl)-N-methylglycine] | 0.1 nM
COC(=O)C1CN(Cc2cnc3cc(-c4cccc(-c5cccc(-c6ccc(CNC[C@@H]7CCC(=O)N7)c(OC)n6)c5Cl)c4Cl)ncc3c2)C1 [Example 304, (S)-Methyl 1-((7-(2,2′-dichloro-3′-(6-methoxy-5-((((5-oxopyrrolidin-2-yl)methyl)amino)methyl)pyridin-2-yl)-[1,1′-biphenyl]-3-yl)-1,6-naphthyridin-3-yl)methyl)azetidine-3-carboxylate] | 0.2 nM
COc1nc(-c2cccc(-c3cccc(-c4ccc5c(OC)c(CNC[C@@H]6CCC(=O)N6)cc(Cl)c5n4)c3Cl)c2Cl)ccc1CNC[C@@H]1CCC(=O)N1 [Example 194, (S)-5-((((8-Chloro-2-(2,2′-dichloro-3′-(6-methoxy-5-(((((S)-5-oxopyrrolidin-2-yl)methyl)amino)methyl)pyridin-2-yl)-[1,1′-biphenyl]-3-yl)-5-methoxyquinolin-6-yl)methyl)amino)methyl)pyrrolidin-2-one] | 26 nM
COC(=O)C1CN=C(c2cnc3cc(-c4cccc(-c5cccc(-c6ccc(CNC[C@@H]7CCC(=O)N7)c(OC)n6)c5Cl)c4Cl)ccn3c2=O)N1 (stereo partly drawn) [Example 171, Methyl 2-(8-(2,2′-dichloro-3′-(6-methoxy-5-(((((S)-5-oxopyrrolidin-2-yl)methyl)amino)methyl)pyridin-2-yl)-[1,1′-biphenyl]-3-yl)-4-oxo-4H-pyrido[1,2-a]pyrimidin-3-yl)-4,5-dihydro-1H-imidazole-5-carboxylate] | 0.2 nM
COc1nc(-c2cccc(-c3cccc(-c4ccn5c(=O)c(CN6CC(C(=O)O)C6)cnc5c4)c3Cl)c2Cl)ccc1CNC[C@@H]1CCC(=O)N1 [Example 98, (S)-1-((8-(2,2′-Dichloro-3′-(6-methoxy-5-((((5-oxopyrrolidin-2-yl)methyl)amino)methyl)pyridin-2-yl)-[1,1′-biphenyl]-3-yl)-4-oxo-4H-pyrido[1,2-a]pyrimidin-3-yl)methyl)azetidine-3-carboxylic acid] | 0.3 nM
COc1nc(-c2cccc(-c3cccc(-c4ccn5c(=O)c(CNC[C@@H]6CCC(=O)N6)cnc5c4)c3Cl)c2C#N)ccc1CNC[C@@H]1CCC(=O)N1 [Example 145, 2′-Chloro-3-(6-methoxy-5-(((((S)-5-oxopyrrolidin-2-yl)methyl)amino)methyl)pyridin-2-yl)-3′-(4-oxo-3-(((((S)-5-oxopyrrolidin-2-yl)methyl)amino)methyl)-4H-pyrido[1,2-a]pyrimidin-8-yl)-[1,1′-biphenyl]-2-carbonitrile] | 2.2 nM
CCNc1nc(-c2cccc(-c3cccc(-c4ccn5c(=O)c(CNC[C@@H]6CCC(=O)N6)cnc5c4)c3C)c2Cl)ccc1CNC[C@@H]1CCC(=O)N1 [Example 74, 8-(2′-Chloro-3′-(6-(ethylamino)-5-(((((S)-5-oxopyrrolidin-2-yl)methyl)amino)methyl)pyridin-2-yl)-2-methyl-[1,1′-biphenyl]-3-yl)-3-(((((S)-5-oxopyrrolidin-2-yl)methyl)amino)methyl)-4H-pyrido[1,2-a]pyrimidin-4-one] | 15 nM
